Converted amounts (≈) assume the structure as drawn. “And” between values parts separate entries of the source, which are not always exact repeats. Identical values can stand only once. Like-named read-outs stand apart in the source and are kept apart here.
Assays:
E. coli (NCIB 12210) [1] = test: Agar diffusion test, MIC; assay type: cell-based, Escherichia coli; conditions: for MIC: LB pH 7.2, 37 °C, 20 h; for antibacterial activity of CD complex: up to 3–5 mg/mL concentration
Procedure: (§1) The strains used in this study were Escherichia coli (NCIB 12210) and Bacillus subtilis (NCIB 8054) from National Resource Center All-Russian collection of industrial microorganisms SIC “Kurchatov Institute”). The culture was cultivated for 18–20 h at 37 °C to CFU ≈ 5 × 10^6 – 8 × 10^6 (determined by A600) in liquid nutrient medium Luria–Bertani (pH 7.2): E. coli—without stirring, B. subtilis—with stirring 180 rpm.
(§2) The study of the antibacterial effect of Lev and adjuvants was carried out by (a) agar diffusion test and (b) broth micro-dilution method. (a) A measured 500 µL of 100-fold culture dilution was evenly distributed over a solid nutrient medium (LB, pH 7.2) on a Petri dish. After 20 min, agar disks with a diameter of 9 mm were removed from the cups and 50 µL of the test samples were placed in the formed wells at the required concentration in a sterile PBS buffer (see Section 3.3 (2)). After 30 min, Petri dishes were placed in a 37 °C thermostat. After 24 h, the diameters of the growth inhibition zones were measured. Minimum inhibitory concentrations (MICs) are determined as the infimum of multiple concentrations of an antimicrobial that inhibits the visible growth of a microorganism after overnight incubation. (b) According to the standard broth micro-dilution method, 200 µL of the overnight culture (5 × 10^6 CFU) was placed into a 96 micro-titer plate wells. Then 50 µL of tested samples was added. The range of tested Lev concentration was 4–200 ng/mL, adjuvants concentration was in the range of 0.008–2 mg/mL. Optical density measurements at 600 nm were taken at various times (0, 3, and 18 h) to determine the number of cells. The dependence of CFU (determined by A600) on the concentration of Lev, APAB or terpenoid (briefly X) was approximated according to the Boltzmann equation (Origin software): CFU = (control CFU)/(1 + exp(([X] − MIC50)/constant value)). MIC50 and MIC90 are defined as concentrations at which the inhibition of bacterial growth by 50 and 90% is noticeable, respectively. In other words, the concentration at which the ordinate value (CFU) is equal to 50 or 10% of the control sample minus the background.

E. coli (NCIB 12210) [2] = test: Broth micro-dilution method, MIC50/MIC90; assay type: cell-based, Escherichia coli
Procedure: as §1
as §2, with “In other words, the concentration at which the ordinate value (CFU) is equal to 50 or 10% of the control sample minus the background.” left out

B. subtilis (NCIB 8054) [3] = test: Agar diffusion test, MIC; assay type: cell-based, Bacillus subtilis; conditions: B. subtilis; for MIC: agar diffusion test, LB pH 7.2, 37 °C, 20 h; for antibacterial activity of CD complex: up to 3–5 mg/mL concentration
Procedure: as §1, §2

B. subtilis (NCIB 8054) [4] = test: Broth micro-dilution method, MIC50/MIC90; assay type: cell-based; conditions: Bacillus subtilis, NCIB8054
Procedure: as §1
The study of the antibacterial effect of Lev and adjuvants was carried out by (a) agar diffusion test and (b) broth micro-dilution method. (a) A measured 500 µL of 100-fold culture dilution was evenly distributed over a solid nutrient medium (LB, pH 7.2) on a Petri dish. […] After 24 h, the diameters of the growth inhibition zones were measured. Minimum inhibitory concentrations (MICs) are determined as the infimum of multiple concentrations of an antimicrobial that inhibits the visible growth of a microorganism after overnight incubation. […] The dependence of CFU (determined by A600) on the concentration of Lev, APAB or terpenoid (briefly X) was approximated according to the Boltzmann equation (Origin software): CFU = (control CFU)/(1 + exp(([X] − MIC50)/constant value)). […]

[5] = MCD, cited from earlier work; for EE, %: C(MCD) = 0.01 M
[6] = HPCD, cited from earlier work
[7] = Formation of inclusion complexes with MCD (UV spectroscopy, Hill linearization); assay type: physicochemical; conditions: for EE, % / LC, % / n: MCD; for EE, % / LC, %: C(MCD) = 0.01 M, pH 6.2, 22 °C; for n: Xaq + n MCDaq ⇌ X·nMCDaq, 5 mM sodium phosphate buffer pH 6.2, 22 °C
Procedure: To optimize the system composition, similar experiments were carried out on the formation of EG and apiol inclusion complexes with HPCD (Figure S1). […] According to these changes, the dissociation constants of the EG–HPCD and apiol–HPCD complexes (Figure S2) were calculated by Hill’s equation (Table 1). […] The physicochemical parameters of the interaction of APAB and terpenoids (X) with CD were studied by determining the concentration of substances in the aqueous fraction ([APAB] + [APAB-MCD]) according to the calibration dependence (Figure 1C) for systems with a constant amount of the essential oil component X and the concentration gradient MCD (Table 1). Theta (θ) is a fraction of the bound substance X:θ = [X-MCD]/([X-MCD] + [X]) and was calculated based on the dependence of the absorption intensity X on the MCD concentration in the system in the form of a sigmoidal Hill curve with subsequent linearization (Section 3, Section 3.3 and Section 3.4).
The molar excess of CD varied from 0.04 to 10). Further, the complexes were incubated for 1 h at 37 °C and then centrifuged ([…], 15 min, Eppendorf tubes) to separate the insoluble fractions. Complexes were studied by UV and FTIR spectroscopy.
UV spectra of solutions (point 3.3.1) were recorded on the AmerSham Biosciences UltraSpec 2100 pro device (USA) three times in the range of 200–400 nm in a quartz cell Hellma 100–QS with an optical path of 1 cm. Background spectrum (5 mM sodium phosphate buffer (pH 6.2) with 50% EtOH) was subtracted as a blank.
(1) Calculation of the dissociation constants X–MCD and X–HPCD, where X is a “guest” compound, considering the equilibrium: Xaq + n MCDaq ↔ X·nMCDaq, where Kd = [MCDaq]^n · [Xaq]/[X·nMCDaq].
First, fitting of the curves of change of the analytical signal ξ (peak intensity or peak position) versus concentration of the MCD or HPCD or was carried out using the Hill equations: (1) ξ = ξ∞ · [MCD]^n/([MCD]^n + K^n), where ξ∞—horizontal asymptote; (2) ξ = ξ0 + (ξ∞–ξ0) · [MCD]^n/([MCD]^n + K^n). Second, calculation n and Kd values by Hill’s linearization in n-binding site model: lg (θ/(1 – θ)) = n · lg [L] – lg Kd, where θ = |(ξ – ξ0)/(ξ∞ − ξ0)|is a fraction of the bound substance. N in Hill equation—number of drug molecules per CD torus.
Calculations for the following items are performed when [MCD] = 0.01 M.

E. coli = test: Synergy of adjuvant-MCD with Lev-MCD, growth inhibition zones in agar; assay type: cell-based, Escherichia coli; conditions: E. coli; for D, diameter of bacterial inhibition zone surrounding Lev–MCD with APAB-MCD / ϕLev = (D/DLev)^2 / FICI: CLev 0.1 μg/mL; for D, diameter of bacterial inhibition zone surrounding Lev–MCD with APAB-MCD: Lev-MCD + X-MCD (1:2), ±0.5; for ϕLev = (D/DLev)^2: ±0.1; for FICI: ±15%
Procedure: We obtained complex formulations containing adjuvants-MCD and Lev-MCD. These complexes were referred to as enhanced Lev. The synergy effect was studied at a constant concentration of Lev and a variable concentration of an enhancer. […] Based on the D/DLev ratio, the effectiveness of cooperative antibacterial action (ϕ) of the adjuvant and Lev was calculated. The fractional inhibitory concentration (FIC) parameter was introduced: at a fixed Lev concentration, the FIC of adjuvant corresponds to the minimum fractional adjuvant concentration at which the antibacterial effect was still manifest (MICadjuvant in the presence of Lev). The fractional inhibitory concentration index (FICI) characterizes the ratio of the active Lev and adjuvant concentrations to the MIC values of these substances individually: FICI=[Lev]/MIC(Lev)[…][adjuvant]/MIC(adjuvant) (see Section 3).
The FICI was interpreted as: synergism (<0.35), additivity (0.35–0.75), indifference (0.75–1.4), or antagonism (>1.4). FICI is designed to determine the type of Lev interaction with adjuvants.
as §2, with “After 24 h, the diameters of the growth inhibition zones were measured.” left out, “Optical density measurements at 600 nm were taken at various times (0, 3, and 18 h) to determine the number of cells.” left out, “MIC50 and MIC90 are defined as concentrations at which the inhibition of bacterial growth by 50 and 90% is noticeable, respectively.” left out
The FICI was interpreted as: synergism (<0.35), additivity (0.35–0.75), indifference (0.76–1.4), or antagonism (>1.4). The essence of this expression is to calculate the average change in the effective concentration compared to MIC. Note that the most important parameter corresponds to a decrease in MIC of Lev. However, FICI is designed to determine the type of interaction Lev with adjuvants.

[8] = Solubility of X in water and in the presence of MCD/HPCD (UV absorbance); conditions: 22 °C, pH 6.2, water
Procedure: (§3) (3) Solubility of X in water C0 = [Xaq] = A/(ε · l) was determined by UV absorbance after centrifugation of samples (10 min, 10,000× g). l = 1 cm. ε—molar absorbance coefficient (Figure 1C).

physchem = conditions: 22 °C, pH 6.2, water
Procedure: as §3

[9] = Escherichia coli, NCIB12210, broth micro-dilution

| SMILES | EE, % [7] [%] | LC, % [7] [%] | n [7] | antibacterial activity of CD complex (E. coli (NCIB 12210) [1]) | antibacterial activity of CD complex (B. subtilis (NCIB 8054) [3]) | decrease of MICLev in the presence of adjuvant (E. coli) | D, diameter of bacterial inhibition zone surrounding Lev–MCD with APAB-MCD (E. coli) [mm] | ϕLev = (D/DLev)^2 (E. coli) | FICI (E. coli) | solubility (physchem) [µM] | further results |
| --- | --- | --- | --- | --- | --- | --- | --- | --- | --- | --- | --- |
| C[C@H]1COc2c(N3CCN(C)CC3)c(F)cc3c(=O)c(C(=O)O)cn1c23 [Levofloxacin] |  |  |  |  |  |  |  |  |  |  | MIC (E. coli (NCIB 12210) [1]; Escherichia coli, NCIB12210, agar diffusion test, read-out: MIC): 0.1 µg/mL (≈ 0.277 µM); MIC (E. coli (NCIB 12210) [1]; agar diffusion test, listed as Lev): 0.10 µg/mL and 0.10 ± 0.01 µg/mL; MIC50 (E. coli (NCIB 12210) [2]; [9]): 0.01 ± 0.002 µg/mL (≈ 0.0277 µM); MIC90 (E. coli (NCIB 12210) [2]; [9]): 0.025 ± 0.004 µg/mL (≈ 0.0692 µM); improvement of the effect of Lev by MCD (E. coli (NCIB 12210) [2]; broth micro-dilution test): 30%; MIC (B. subtilis (NCIB 8054) [3]; listed as Lev): 0.45 ± 0.05 µg/mL (≈ 1.25 µM); MIC (B. subtilis (NCIB 8054) [3]; Bacillus subtilis, NCIB8054, read-out: MIC): 0.45 µg/mL (≈ 1.25 µM); MIC50 (B. subtilis (NCIB 8054) [4]): 0.03 ± 0.01 µg/mL (≈ 0.083 µM); MIC90 (B. subtilis (NCIB 8054) [4]): 0.08 ± 0.02 µg/mL (≈ 0.221 µM); EE, % [5]: 99 ± 12%; EE, % ([5]; listed as Lev): more than 90%; LC, % [5]: 28.3 ± 0.4%; EE, % ([6]; 0.01 M): 91 ± 15%; LC, % [6]: 24.1 ± 0.5% |
| C=CCc1cc(OC)c(OC)c(OC)c1OC [Allyltetramethoxybenzene] | 45 ± 4 | 11 ± 1 | 1.74 ± 0.11 | inactive | inactive | 1.25–1.5 times | 12 | 1.1 | 0.50 |  | solubility [8]: 160 ± 20 µM |
| C=CCc1cc2c(c(OC)c1OC)OCO2 [Dillapiol] | 56 ± 10 | 13 ± 1 | 1.3 ± 0.2 |  |  | 1.25–1.5 times | 13.75 | 1.3 | 0.04 | 240 ± 50 (≈ 53.3 µg/mL) |  |
| C=CCc1cc(OC)c2c(c1)OCO2 [Myristicin] | 99 ± 5 | 22 ± 2 | 0.67 ± 0.06 | inactive | inactive | 1.25–1.5 times | 13.25 | 1.2 | 0.04 | 30 ± 7 (≈ 5.77 µg/mL) | molar ratio APAB:CD of inclusion complexes [7]: 2 to 1; EE, % ([7]; listed as myristicin): more than 90% |
| C=CC(C)(O)CCC=C(C)C (centres unmarked) [Linalool] | 80 ± 7 | 10 ± 1 | 1.2 ± 0.2 | inactive | inactive |  |  |  |  | 300 ± 50 (≈ 46.3 µg/mL) |  |

Reference: publication PMC9321718 (Pharmaceuticals, 2022)
